Laboratory results taken from patent US4520022A, “Substituted vinyl cephalosporins” (priority 1983, dated 1985).
≈ marks a conversion by molar mass, not a printed value. Where two headings read alike, the source gives them in different places. Blank lines part the entries; values can stand above or below the compound they belong to.

Legend:
S. aureus Smith = test: Protective dose, mice infected with lethal inoculum, oral treatment, S. aureus Smith; type: in vivo; settings: Staphylococcus aureus, po, 120 h, read-out: Protective dose (PD50), S. aureus Smith
E. coli Juhl = test: Protective dose, mice infected with lethal inoculum, oral treatment, E. coli Juhl; type: in vivo; settings: Escherichia coli, po, 120 h, read-out: Protective dose (PD50), E. coli Juhl
in vivo = settings: mouse; for half-life: T1/2
[1] = test system: Gp Ib: S. aureus 193, BX-1633-2 A9606, A15092, Russell, A9602; settings: Staphylococcus aureus
[2] = test system: Gp Ia: S. aureus Smith A9537, A9497, Terajima, A9534, A9601; settings: Staphylococcus aureus, read-out: Minimum Inhibitory Concentration Gp Ia, Mueller-Hinton agar; run 1; average of five organisms
S. pyogenes = test: In vitro activity against Streptococci (MIC), S. pyogenes; type: cell-based; settings: Streptococcus pyogenes, Compound 9 lot 2
S. pneumoniae = test: In vitro activity against Streptococci (MIC), S. pneumoniae; type: cell-based; settings: Streptococcus pneumoniae, Compound 9 lot 2
N. gonorrheae = test: In vitro activity against Neisseria (MIC), N. gonorrheae; type: cell-based
N. meningitidis = test: In vitro activity against Neisseria (MIC), N. meningitidis; type: cell-based
H. influenzae = test: In vitro activity against Haemophilis (MIC), H. influenzae; type: cell-based; settings: Haemophilus influenzae, Compound 9 lot 2
[3] = oral, 50% survival for 5 days, groups of 5 mice
[4] = read-out: Minimum Inhibitory Concentration Gp Ib, Mueller-Hinton agar, run 1, average of five organisms

Compound: CC/C=C\C1=C(C(=O)[O-])N2C(=O)[C@@H](NC(=O)[C@H](N)c3ccc(O)cc3)[C@H]2SC1.[Na+]
ED50 (S. aureus Smith): 0.32 mg/kg | ED50 (E. coli Juhl): 3 mg/kg | AUC (in vivo; im, 20 mg/kg, AUC*, Run 1, * mean of 3 runs): 20000 ng·h/mL | Cmax (in vivo; im, 20 mg/kg): 25000 ng/mL | half-life (in vivo; im, 20 mg/kg): 0.74 h | AUC (in vivo; po, 20 mg/kg, AUC*, Run 1, * mean of 3 runs): 41000 ng·h/mL | Cmax (in vivo; po, 20 mg/kg): 13000 ng/mL | half-life (in vivo; po, 20 mg/kg): 2 h | AUC (in vivo; po, 100 mg/kg, AUC): 150000 ng·h/mL | Cmax (in vivo; po, 100 mg/kg): 51000 ng/mL | half-life (in vivo; po, 100 mg/kg): 1.9 h | MIC ([1]; read-out: Minimum Inhibitory Concentration Gp Ib): 1.4 µg/mL | MIC [2]: 0.4 µg/mL

Compound: C/C=C/C1=C(C(=O)O)N2C(=O)[C@@H](NC(=O)[C@H](N)c3ccc(O)cc3)[C@H]2SC1 [Compound 8, 7β-[D-2-Amino-2-(p-hydroxyphenyl)acetamido]-3-[(E)-1-propen-1-yl]-3-cephem-4-carboxylic Acid]
ED50 (S. aureus Smith; [3]): 0.2 mg/kg | ED50 (E. coli Juhl; [3]): 7.5 mg/kg | AUC (in vivo; im, 20 mg/kg, AUC*): 31000 ng·h/mL | Cmax (in vivo; im, 20 mg/kg): 31000 ng/mL | half-life (in vivo; im, 20 mg/kg): 0.63 h | AUC (in vivo; po, 20 mg/kg, AUC*): 22000 ng·h/mL | Cmax (in vivo; po, 20 mg/kg): 10000 ng/mL | half-life (in vivo; po, 20 mg/kg): 1.3 h | AUC (in vivo; po, 100 mg/kg, AUC): 69000 ng·h/mL | Cmax (in vivo; po, 100 mg/kg): 30000 ng/mL | half-life (in vivo; po, 100 mg/kg): 1.4 h | MIC [1, 4]: 1.4 µg/mL (≈ 3.59 µM) | MIC [2]: 0.26 µg/mL (≈ 0.668 µM)

Compound: C=CC1=C(C(=O)O)N2C(=O)[C@@H](NC(=O)[C@H](N)c3ccc(O)cc3)[C@H]2SC1 [Compound 11]
ED50 (S. aureus Smith; [3]): 0.18 mg/kg | ED50 (E. coli Juhl; [3]): 3.8 mg/kg | AUC (in vivo; im, 20 mg/kg, AUC*): 15000 ng·h/mL | Cmax (in vivo; im, 20 mg/kg): 23000 ng/mL | half-life (in vivo; im, 20 mg/kg): 0.37 h | AUC (in vivo; po, 20 mg/kg, AUC*): 13000 ng·h/mL | Cmax (in vivo; po, 20 mg/kg): 11000 ng/mL | half-life (in vivo; po, 20 mg/kg): 1.4 h | AUC (in vivo; po, 100 mg/kg, AUC): 49000 ng·h/mL | Cmax (in vivo; po, 100 mg/kg): 43000 ng/mL | half-life (in vivo; po, 100 mg/kg): 1.2 h | MIC [1, 4]: 1.2 µg/mL (≈ 3.2 µM) | MIC [2]: 0.4 µg/mL (≈ 1.07 µM)

MIC (S. pyogenes; S. pyogenes A9604, read-out: MIC): 0.2 µg/mL (≈ 0.43 µM) | MIC (S. pyogenes; S. pyogenes A15040, read-out: MIC): 0.2 µg/mL (≈ 0.43 µM) | MIC (S. pyogenes; S. pyogenes A20065, read-out: MIC): 0.2 µg/mL (≈ 0.43 µM) | MIC (S. pyogenes; S. pyogenes A20201, read-out: MIC): 0.2 µg/mL (≈ 0.43 µM) | MIC (S. pyogenes; S. pyogenes Dick, read-out: MIC): 0.2 µg/mL (≈ 0.43 µM) | MIC (S. pyogenes; S. pyogenes S-23, Dick, A9604, A20065, A15040, read-out: MIC, Geometric Mean): 0.2 µg/mL (≈ 0.43 µM) | MIC (S. pyogenes; S. pyogenes S-23, read-out: MIC): 0.2 µg/mL (≈ 0.43 µM) | MIC (S. pneumoniae; S. pneumoniae A9585, read-out: MIC): 0.4 µg/mL (≈ 0.859 µM) | MIC (S. pneumoniae; S. pneumoniae A15069, read-out: MIC): 0.2 µg/mL (≈ 0.43 µM) | MIC (S. pneumoniae; S. pneumoniae A20759, read-out: MIC): 0.4 µg/mL (≈ 0.859 µM) | MIC (S. pneumoniae; S. pneumoniae Type I, read-out: MIC): 0.2 µg/mL (≈ 0.43 µM) | MIC (S. pneumoniae; S. pneumoniae Type II, I, III, A9585, A15069, read-out: MIC, Geometric Mean): 0.23 µg/mL (≈ 0.494 µM) | MIC (S. pneumoniae; S. pneumoniae Type II, read-out: MIC): 0.2 µg/mL (≈ 0.43 µM) | MIC (S. pneumoniae; S. pneumoniae Type III, read-out: MIC): 0.2 µg/mL (≈ 0.43 µM) | MIC (N. gonorrheae; N. gonorrheae A20142, Compound 9 lot 2): > 100 µg/mL | MIC (N. gonorrheae; N. gonorrheae A20143, Compound 9 lot 2): > 100 µg/mL | MIC (N. gonorrheae; N. gonorrheae A20154, Compound 9 lot 2): > 100 µg/mL | MIC (N. gonorrheae; N. gonorrheae A20155, Compound 9 lot 2): > 100 µg/mL | MIC (N. gonorrheae; read-out: MIC): > 100 µg/mL | MIC (N. gonorrheae; read-out: MIC, Geometric Mean): > 100 µg/mL | MIC (N. meningitidis; N. meningitidis A21487, Compound 9 lot 2): > 100 µg/mL | MIC (N. meningitidis; N. meningitidis A21496, Compound 9 lot 2): > 100 µg/mL | MIC (N. meningitidis; N. meningitidis A21497, Compound 9 lot 2): > 100 µg/mL | MIC (N. meningitidis; Neisseria meningitidis, read-out: MIC): > 100 µg/mL | MIC (N. meningitidis; Neisseria meningitidis, read-out: MIC, Geometric Mean): > 100 µg/mL | MIC (H. influenzae; H. influenzae A9729, read-out: MIC): > 100 µg/mL | MIC (H. influenzae; H. influenzae A9833, read-out: MIC): > 100 µg/mL | MIC (H. influenzae; H. influenzae A20177, read-out: MIC): > 100 µg/mL | MIC (H. influenzae; H. influenzae A20193, read-out: MIC): > 100 µg/mL | MIC (H. influenzae; H. influenzae A21523, read-out: MIC): > 100 µg/mL | MIC (H. influenzae; H. influenzae A22157, read-out: MIC): 25 µg/mL (≈ 53.7 µM) | MIC (H. influenzae; H. influenzae A22481, read-out: MIC): 25 µg/mL (≈ 53.7 µM) | MIC (H. influenzae; H. influenzae A22482, read-out: MIC): > 100 µg/mL | MIC (H. influenzae; H. influenzae A22483, read-out: MIC): > 100 µg/mL | MIC (H. influenzae; H. influenzae A22491, read-out: MIC): 25 µg/mL (≈ 53.7 µM) | MIC (H. influenzae; H. influenzae, seven strains above, read-out: MIC, Geometric Mean): > 100 µg/mL | AUC (in vivo; im, 20 mg/kg, AUC*): 52000 ng·h/mL | Cmax (in vivo; im, 20 mg/kg): 31000 ng/mL | half-life (in vivo; im, 20 mg/kg): 0.99 h | AUC (in vivo; po, 20 mg/kg, AUC*): 38000 ng·h/mL | Cmax (in vivo; po, 20 mg/kg): 12000 ng/mL | half-life (in vivo; po, 20 mg/kg): 2.7 h | AUC (in vivo; po, 100 mg/kg, AUC): 81000 ng·h/mL | Cmax (in vivo; po, 100 mg/kg): 41000 ng/mL | half-life (in vivo; po, 100 mg/kg): 2.7 h | MIC [1, 4]: 0.7 µg/mL (≈ 1.5 µM) | MIC [2]: 0.2 µg/mL (≈ 0.43 µM)
Compound: N[C@@H](C(=O)N[C@@H]1C(=O)N2C(C(=O)O)=C(/C=C\Cc3ccccc3)CS[C@H]12)c1ccc(O)cc1 [Compound 15, 7β-[D-2-Amino-2-(p-hydroxyphenyl)acetamido]-3-[(Z)-3-phenyl-1-propen-1-yl]-3-cephem-4-carboxylic acid]
